The results in this text go back to PubChem BioAssay (NCI).

Test systems include MDA-MB-231 breast; BT-549 breast; MCF7 breast; T-47D breast; PC-3 prostate.
Assay in all cases: growth of human tumour cells (NCI), 48 h

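In this assay, cells in 96-well plates receive the compound at five concentrations for 48 hours. Endpoints are linearly interpolated between the surrounding concentrations. The concentration for 50% growth inhibition is given as GI50. TGI: concentration producing complete growth inhibition.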 Bounds are passed on as bounds.

Take `COc1cc2c(cc1OCCCNC(=O)c1cccc3c(=O)c4ccccc4[nH]c13)N=C[C@@H]1CCCN1C2=O`: the GI50 was less than 0.01 µM with MDA-MB-231 breast; less than 10 nM in the test on BT-549 breast; less than 24.2 nM with MCF7 breast; less than 10 nM in the test with T-47D breast; less than 11 nM in the test with PC-3 prostate. The TGI is less than 0.0484 µM in the test on MDA-MB-231 breast; less than 0.0437 µM in the test on BT-549 breast; 13.8 µM in the test on MCF7 breast; 29.6 µM in the test with T-47D breast; 0.949 µM with PC-3 prostate.
In the case of `C#C[C@]1(O)CCC2C3CCc4cc(O)ccc4C3CC[C@@]21C` (stereo partly specified), the GI50 with MDA-MB-231 breast was 7.58 µM; in the test on BT-549 breast, 4640 nM; in the test on MCF7 breast, 9510 nM; in the test on T-47D breast it was 6910 nM; in the test with PC-3 prostate, 5480 nM. For the same molecule, the TGI in the test with MDA-MB-231 breast stood at 47.2 µM; in the test on BT-549 breast, 18.4 µM; with MCF7 breast, 25.2 µM; in the test with T-47D breast, 24.4 µM; in the test on PC-3 prostate, 42.4 µM.
Consider `Cn1cc(C2=C(c3cn(CCCCO)c4ccccc34)C(=O)NC2=O)c2ccccc21`, for which the GI50 with MDA-MB-231 breast is 17.2 µM; in the test on BT-549 breast it was 8270 nM; with MCF7 breast, 4450 nM; with T-47D breast, 9640 nM; in the test on PC-3 prostate, 9380 nM. Also, the TGI with MDA-MB-231 breast was more than 25 µM; in the test on BT-549 breast, more than 19.6 µM; in the test with MCF7 breast, more than 25 µM; in the test on T-47D breast it was 24.8 µM; in the test with PC-3 prostate it was more than 25 µM.
As for `Cc1ccc(NC(=O)CC2CC2)cc1-c1ccc(C(=O)NCC2CC2)cc1`, the GI50 in the test with MDA-MB-231 breast was more than 25 µM; with BT-549 breast it was more than 25000 nM; with MCF7 breast it was more than 25000 nM; in the test on T-47D breast, more than 17300 nM; with PC-3 prostate, more than 25000 nM. Also, the TGI in the test with MDA-MB-231 breast, with BT-549 breast, in the test with MCF7 breast, in the test on T-47D breast and with PC-3 prostate was more than 25 µM each time.
For the molecule `COc1ccc2c(c1)C(=O)c1c-2c(N2CCN(C(=O)CNCCNCCO)CC2)nc2ccccc12`, the GI50 in the test on MDA-MB-231 breast was 3.23 µM; in the test with BT-549 breast, 3670 nM; in the test on MCF7 breast it was 1750 nM; with T-47D breast, 2490 nM; in the test on PC-3 prostate it was 5570 nM. Also, the TGI with MDA-MB-231 breast amounted to 12.7 µM; in the test with BT-549 breast, 12.6 µM; in the test with MCF7 breast, 3.5 µM; in the test with T-47D breast, 6.55 µM; in the test with PC-3 prostate it was 18.7 µM.
As for `COc1ccc(/C=C2/N=C(c3ccccc3)N(c3c(C)n(C)n(-c4ccccc4)c3=O)C2=O)cc1OC`, the GI50 with MDA-MB-231 breast is more than 100 µM; in the test on MCF7 breast, 70500 nM; in the test with T-47D breast, 77500 nM; with PC-3 prostate, more than 100000 nM. Also, the TGI with MDA-MB-231 breast, with MCF7 breast, with T-47D breast and with PC-3 prostate was more than 100 µM in each case.
`O=C(CC1(O)C(=O)N(Cc2ccccc2)c2ccc(F)cc21)c1ccc(C(=O)NCC2CCC3(CC2)OOC2(CCCCC2)OO3)cc1` (stereo unspecified): the GI50 was 0.423 µM in the test on MDA-MB-231 breast; 1880 nM with BT-549 breast; 1920 nM with MCF7 breast; 843 nM in the test on T-47D breast; 990 nM in the test on PC-3 prostate. Also, the TGI was 1.68 µM with MDA-MB-231 breast; 4.28 µM in the test with BT-549 breast; more than 31.9 µM in the test on MCF7 breast; 3.11 µM in the test with T-47D breast; 3.21 µM in the test on PC-3 prostate.
For `COc1ccc(-c2nc3ccc(-c4nc5ccc(N6CCN(c7ccccc7)CC6)cc5[nH]4)cc3[nH]2)cc1OC`, the GI50 in the test with MDA-MB-231 breast is 2.48 µM; in the test on BT-549 breast, 3310 nM; in the test on MCF7 breast, 138 nM; with T-47D breast it was 1680 nM; in the test with PC-3 prostate it was 1590 nM. For the same molecule, the TGI in the test with MDA-MB-231 breast amounted to 5.05 µM; with BT-549 breast it was 10.9 µM; in the test on MCF7 breast, 0.649 µM; in the test with T-47D breast it was 5.19 µM; in the test on PC-3 prostate it was 3.26 µM.
As for `O=C(N[C@@H](c1ccc(Cl)c(Cl)c1)C1CNC1)c1ccc2cnccc2c1`, the GI50 was 0.639 µM with MDA-MB-231 breast; 301 nM in the test on BT-549 breast; 200 nM with MCF7 breast; 59.1 nM in the test with T-47D breast; 486 nM in the test on PC-3 prostate. Also, the TGI in the test with MDA-MB-231 breast was found to be 15 µM; in the test with BT-549 breast it was 1.67 µM; in the test with MCF7 breast, 1.59 µM; in the test with T-47D breast, 3.57 µM; with PC-3 prostate, 17.2 µM.
Regarding `Nc1c(C(=O)Nc2ccncc2)sc2nc3c(cc12)CCCCCCCC3`, the GI50 is 0.899 µM with MDA-MB-231 breast; 838 nM in the test on BT-549 breast; 886 nM in the test on MCF7 breast; 940 nM in the test with T-47D breast; 866 nM in the test on PC-3 prostate. The TGI came to 1.66 µM with MDA-MB-231 breast; 1.6 µM with BT-549 breast; 1.75 µM in the test with MCF7 breast; 2.21 µM in the test on T-47D breast; 1.72 µM in the test with PC-3 prostate.
As to `O=C(Nc1ccncc1)C(=O)c1cn(S(=O)(=O)c2ccc(F)cc2)c2ccccc12`, the GI50 is 5.97 µM in the test with MDA-MB-231 breast; 1580 nM with BT-549 breast; 779 nM in the test on MCF7 breast; 2240 nM with T-47D breast; 4450 nM in the test on PC-3 prostate. Besides, the TGI in the test with MDA-MB-231 breast was more than 100 µM; in the test on BT-549 breast it was 39.9 µM; in the test with MCF7 breast, more than 100 µM; in the test with T-47D breast, 61 µM; in the test on PC-3 prostate, more than 100 µM.
`COc1cccc2c1C(=O)c1c(O)c3c(c(O)c1C2=O)C[C@](O)(C(=O)CO)C[C@H]3O[C@@H]1C[C@@H](NC(=O)CCCCCN(C)C2(c3ccc(F)cc3)CC3CCC2C3)[C@H](O)[C@@H](C)O1` (stereo partly specified): the GI50 in the test on MDA-MB-231 breast was 1 µM; in the test on BT-549 breast, 5300 nM; in the test with MCF7 breast, 966 nM; in the test with PC-3 prostate, 994 nM. Besides, the TGI in the test with MDA-MB-231 breast was determined as 2.63 µM; in the test on BT-549 breast, 14.2 µM; in the test with MCF7 breast, 2.7 µM; in the test on PC-3 prostate it was 2.06 µM.
Consider `C=C(C)[C@@H]1CC[C@]2(C)[C@H](CC=C3[C@@H]4CC(C)(C)CC[C@]4(C(N)=O)CC[C@]32C)[C@@]1(C)CCC#N`, for which the GI50 in the test on MDA-MB-231 breast was 3.96 µM; with BT-549 breast, 2090 nM; with MCF7 breast, 2810 nM; in the test on T-47D breast it was 3270 nM; in the test with PC-3 prostate, 2370 nM. Further, the TGI in the test with MDA-MB-231 breast is more than 100 µM; with BT-549 breast, 5.53 µM; in the test on MCF7 breast, 24.5 µM; in the test with T-47D breast, more than 100 µM; in the test on PC-3 prostate, more than 100 µM.
